This is an account of results in patent US6569446B1, “Solubilization of flavonols” (The Howard Foundation, priority 1996, dated 2003).

≈ marks a conversion by molar mass, not a printed value.

The nature of series [1]: Solubilization of quercetin, quercitrin and rutin by heat in water, grape anthocyanin and malvin chloride solutions (Example 6). The conditions noted are these: thermodynamic from solid. In kind it is physicochemical. Here is the method: Quercetin is a flavonol aglycone. In fruit juices it exists as the glycoside. The purpose of the investigation was to examine the solubilization of glycosides of flavonols by anthocyanins. […] Samples were diluted in water 1:9 before reading. Aliquots of anthocyanin and water with and without the flavonol were treated similarly.
The same procedure was used for measuring the solubility of the flavonols in malvin chloride. In this case 1.8 mg malvin chloride was dissolved in 2.0 ml citrate buffer at pH3. To 1 ml was added 2 mg of the flavonol, the other 1 ml acted as a control. After heating, the mixture was cooled to room temperature, centrifuged, and the supernatant diluted 1:9 with 50% aqueous ethanol. The optical densities were measured at 375 nm.

A further series is described as follows: physchem. In kind it is physicochemical. Particulars: 20 °C, aqueous with cosolvent or surfactant or cyclodextrin, kinetic from dmso stock. As for the experimental part:
The procedure used was as follows: anthocyanin powder was dissolved in deionised water to give concentrations of 0.625, 1.25, 2.5, 10 and 20 mg/ml. […] The mixtures were allowed to stand for 20 to 30 min and then centrifuged at 2000×g for 30 min at 20° C. The optical densities were measured at 258 nm and 375 nm as in Example 1. To 5 ml of each corresponding anthocyanin solution was added the same volume of ethanol determined above to give a precipitate, and the optical densities measured. […] The control was water.
Since quercitin is more soluble in aqueous ethanol than water a further series of controls were prepared in which quercetin in ethanol was added to water in amounts corresponding to those used in the test, and the solubilities likewise determined. […] To solubilize quercetin more anthocyanin was needed than quercetin w/w.

A short description of series [2]: Solubility of solid quercetin mixed with liquids at room temperature (Example 3). The conditions noted are these: 20 °C, thermodynamic from solid, Room temp. In kind it is physicochemical.
Series [3] in a line: Solubility of solid quercetin in liquids after heating to boiling in microwave oven (Example 3). In kind it is physicochemical. The conditions noted are these: 20 °C, thermodynamic from solid. As for the experimental part:
To investigate dissolution by heat, the liquids were heated in a sealed tube for 1 min in a microwave oven (when boiling of the liquid occurred) and cooled to room temperature.

Series [4] is described as follows: Solubilization of quercetin in aqueous malvin chloride by addition of ethanol solution of quercetin (Example 5). In kind it is physicochemical. As for the experimental part:
The anthocyanins can be divided into two major classes: the monomeric anthocyanins and the polymeric anthocyanins. A typical example of a monomeric anthocyanin is malvin chloride, a salt of the oxonium ion malvidin-3-glucose and the chloride ion. It can be obtained in a high state of purity (Indofine Inc, USA) and therefore used to determine the solubilizing effect of an anthocyanin monomer. The procedure was as follows: malvin chloride (2.2 mg) was dissolved in 2 ml citrate buffer (pH 3.0)—one ml acted as a control. […] Equal amounts of ethanol were added to the control. Each solution was diluted (1:9) with 5% aqueous ethanol and the optical density determined at 275 nm.

For series [5] the following is noted: ileostomy subjects (Hollman et al 1995); cited from earlier work.
[6] abbreviates: aqueous with cosolvent or surfactant or cyclodextrin.
The mark [7] stands for this setting: pH 3, aqueous with cosolvent or surfactant or cyclodextrin.

Take `C[C@@H]1O[C@@H](Oc2c(-c3ccc(O)c(O)c3)oc3cc(O)cc(O)c3c2=O)[C@H](O)[C@H](O)[C@H]1O` [Quercitrin, quercetin 3-L-rhamnoside]: the solubility – broadly, the concentration that dissolves in the medium under given conditions – at 1 min came out at 316 µg/mL (≈ 705 µM) in series [1] (setting [6]), 127 µg/mL (≈ 283 µM) in series [1] (setting [7]) and 53 µg/mL (≈ 118 µM) in series [1] (water).
Taken in the same sequence, the figures for `C[C@@H]1O[C@@H](OC[C@H]2O[C@@H](Oc3c(-c4ccc(O)c(O)c4)oc4cc(O)cc(O)c4c3=O)[C@H](O)[C@@H](O)[C@@H]2O)[C@H](O)[C@H](O)[C@H]1O` [Rutin, quercetin 3β-D-rutinoside hydrate] were 260 µg/mL, 74 µg/mL and 36 µg/mL.
Turning to `O=c1c(O)c(-c2ccc(O)c(O)c2)oc2cc(O)cc(O)c12` [quercetin], the solubility in the series “physchem” amounted to 13 µg/mL (≈ 43 µM); in the series “physchem” (Solubility of quercetin, 20 mg grape anthocyanin powder/ml, in a 22% ethanol solution) it was 75 µg/mL (≈ 248 µM); in series [4] (20% v/v ethanol, aqueous with cosolvent or surfactant or cyclodextrin, ethanol 20% v/v, without malvin chloride), 13 µg/mL (≈ 43 µM). Further, the solubility at 3 h is 1 µg/mL (≈ 3.31 µM) in series [2] (aqueous with cosolvent or surfactant or cyclodextrin, Ethanol 12% v/v); 3 µg/mL (≈ 9.93 µM) in series [2] (aqueous with cosolvent or surfactant or cyclodextrin, Red wine Cabernet-Sauvignon (F)); 0.7 µg/mL (≈ 2.32 µM) in series [2] (aqueous with cosolvent or surfactant or cyclodextrin, grape Anthocyanin powder 1 g/L in water); 0.3 µg/mL (≈ 0.993 µM) in series [2] (Water, OD 375 nm). The solubility at 1 min in series [3] (aqueous with cosolvent or surfactant or cyclodextrin, Boiling, Rosé D'Anjou (F)) was 9 µg/mL (≈ 29.8 µM); in series [3] (water, Solubility of quercetin), 2 µg/mL (≈ 6.62 µM); in series [1] (setting [6]), 90 µg/mL (≈ 298 µM); in series [1] (setting [7]) it was 28 µg/mL (≈ 92.6 µM); in series [1] (water), 2 µg/mL (≈ 6.62 µM). The “Solubility of quercetin in presence of malvin chloride” value in series [4] (citrate buffer pH 3.0, 20% v/v ethanol, possibly super saturated) is on record as “extremely soluble”. Besides, the “quercetin added to 1 ml malvin chloride with no precipitate” value in series [4] (malvin chloride 1.1 mg/ml in citrate buffer pH 3.0, quercetin added in ethanol, slight precipitate at 1000 μg) worked out at 750 µg. In addition, in series [5], the absorption was 25%.
